Results on one compound are retold here after patent publication US11938122B2, “5-[[4-[2-[5-(1-hydroxyethyl)pyridin-2-yl]ethoxy]phenyl]methyl]-1,3- thiazolidine-2,4-dione for treating nonalcoholic fatty liver disease” (Minoryx Therapeutics S.L., priority 2016, dated 2024).

The target of one experiment is T1, CYP2B6 (Homo sapiens, UniProt P20813).
T1 construct: in incubations with a pool of human liver microsomes; from tissue; host or cells: pooled human liver microsomes
T1 sequence (P20813 1-491): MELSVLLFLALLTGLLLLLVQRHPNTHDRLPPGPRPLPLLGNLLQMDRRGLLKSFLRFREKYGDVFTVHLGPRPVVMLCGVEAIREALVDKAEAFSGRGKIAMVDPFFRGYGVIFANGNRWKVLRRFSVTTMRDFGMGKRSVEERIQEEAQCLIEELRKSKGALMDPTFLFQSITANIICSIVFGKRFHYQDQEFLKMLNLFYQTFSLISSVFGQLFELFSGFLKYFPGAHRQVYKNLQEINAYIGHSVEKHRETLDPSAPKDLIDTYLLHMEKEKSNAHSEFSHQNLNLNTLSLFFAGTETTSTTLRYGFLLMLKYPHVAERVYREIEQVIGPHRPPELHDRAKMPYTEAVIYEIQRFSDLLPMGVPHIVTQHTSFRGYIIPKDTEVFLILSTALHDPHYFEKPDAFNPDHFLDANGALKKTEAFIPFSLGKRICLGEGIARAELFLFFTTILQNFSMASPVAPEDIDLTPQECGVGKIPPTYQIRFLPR
Kind of experiment: CYP inhibition, cocktail incubation, pooled human liver microsomes. The conditions noted are these: reaction OH-BUP. The format is in vitro ADME. The protocol:
(§1) Inhibition was screened using a cocktail incubation with CYP specific substrates for eight major drug metabolizing CYP enzymes (CYPs 1A2, 2A6, 2B6, 2C8, 2C9, 2C19, 2D6 and 3A4) in incubations with a pool of human liver microsomes. In reversible inhibition, MIN-102 was incubated with buffer, microsomes, cofactor NADPH and CYP-specific substrate cocktail mix for 15 min. In TDI study, buffer and microsomes were preincubated with MIN-102 in the presence and absence of cofactor NADPH for 0 or 30 min to elucidate the possible time-dependency of inhibition. Secondary incubation was conducted with CYP-specific substrate cocktail mix for 30 min. MIN-102 was used at final concentrations of 0.01, 0.1, 1, 10, and 100 μM in both assays.
On the technique in general: Liver microsomes are vesicles of endoplasmic reticulum, rich in cytochrome P450 enzymes.

A further experiment addresses T2, CYP2C19 (Homo sapiens, UniProt P33261).
T2 construct: in incubations with a pool of human liver microsomes; from tissue; host or cells: pooled human liver microsomes
The description is as above. It is filed as in vitro ADME. The method, then:
as §1

In the next experiment the target is T3, CYP2D6 (Homo sapiens, UniProt P10635).
T3 construct: in incubations with a pool of human liver microsomes; from tissue; host or cells: pooled human liver microsomes
The experiment is described as above. It is filed as in vitro ADME. The conditions noted are these: reaction O-dem-DEX. The protocol: as §1

A further experiment deals with T4, CYP2C9 (Homo sapiens, UniProt P11712).
T4 construct: in incubations with a pool of human liver microsomes; from tissue; host or cells: pooled human liver microsomes
The experiment is described as above. Particulars: reaction OH-DICL. The format is in vitro ADME. The protocol: as §1

In the next experiment the target is T5, CYP2A6 (Homo sapiens, UniProt P11509).
T5 construct: in incubations with a pool of human liver microsomes; from tissue; host or cells: pooled human liver microsomes
T5 sequence (P11509 1-494): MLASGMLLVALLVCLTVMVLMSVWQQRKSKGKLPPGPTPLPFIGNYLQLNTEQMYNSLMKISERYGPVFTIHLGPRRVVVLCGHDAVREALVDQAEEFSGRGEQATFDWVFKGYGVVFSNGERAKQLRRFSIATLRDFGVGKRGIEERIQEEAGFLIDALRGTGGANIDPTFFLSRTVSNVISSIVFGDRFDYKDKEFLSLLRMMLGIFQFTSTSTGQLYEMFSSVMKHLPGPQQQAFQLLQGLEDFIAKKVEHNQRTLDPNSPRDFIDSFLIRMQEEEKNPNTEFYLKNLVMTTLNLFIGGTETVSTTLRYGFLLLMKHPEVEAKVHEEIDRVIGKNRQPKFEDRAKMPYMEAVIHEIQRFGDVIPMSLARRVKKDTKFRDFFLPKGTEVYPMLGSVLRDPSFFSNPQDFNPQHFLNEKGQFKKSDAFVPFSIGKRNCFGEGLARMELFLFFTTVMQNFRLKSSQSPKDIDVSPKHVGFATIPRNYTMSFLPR
The description is as above. It is filed as in vitro ADME. Particulars: reaction 7OH-COU. The protocol: as §1

In another experiment the target is T6, CYP2C8 (Homo sapiens, UniProt P10632).
T6 construct: in incubations with a pool of human liver microsomes; from tissue; host or cells: pooled human liver microsomes
T6 sequence (P10632 1-490): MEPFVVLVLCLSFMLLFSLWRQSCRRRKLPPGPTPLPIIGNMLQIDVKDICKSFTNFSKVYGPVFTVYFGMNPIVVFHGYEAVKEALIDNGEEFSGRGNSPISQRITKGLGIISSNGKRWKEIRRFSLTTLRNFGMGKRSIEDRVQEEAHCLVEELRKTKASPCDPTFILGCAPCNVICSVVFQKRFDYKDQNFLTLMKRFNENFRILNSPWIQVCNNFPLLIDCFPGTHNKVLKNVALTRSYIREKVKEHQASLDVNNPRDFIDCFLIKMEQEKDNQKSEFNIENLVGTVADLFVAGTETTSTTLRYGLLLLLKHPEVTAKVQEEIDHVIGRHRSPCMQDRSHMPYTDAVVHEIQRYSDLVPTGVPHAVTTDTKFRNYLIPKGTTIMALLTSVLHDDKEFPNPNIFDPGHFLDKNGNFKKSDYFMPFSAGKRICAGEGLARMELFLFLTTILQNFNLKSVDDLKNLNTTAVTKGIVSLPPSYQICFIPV
The experiment is described as above. It is filed as in vitro ADME. Particulars: reaction OH-REPA. The protocol:
as §1

A further experiment deals with T7, CYP3A4 (Homo sapiens, UniProt P08684).
T7 construct: in incubations with a pool of human liver microsomes; from tissue; host or cells: pooled human liver microsomes
The experiment is described as above. The format is in vitro ADME. The protocol: as §1

A further experiment relates to EAE mouse model. Kind of experiment: Experimental autoimmune encephalitis (EAE) mouse model. It is filed as in vivo. The conditions noted are these: EAE mice, highest dose (125 mg/Kg/day oral, bid). From the text:
The anti-inflammatory potential of MIN-102 was studied using an EAE mouse model, e.g., as described in Linker and Lee, Experimental & Translational Stroke Medicine 1:5 (2009). This model for neuroinflammation is a highly reproducible and long established model of multiple sclerosis. The model is based on the induction of an autoimmune reaction upon the exposure of the animals to myelin antigens. Several days after inoculation, e.g., 9-12 days, the mouse develops a relapsing-remitting or chronic disease course.
In the study, female C57Bl/6 mice were sensitized by a subcutaneous injection of myelin oligodendrocyte glycoprotein peptide fragment 35-55 (MOG35-55) in Freund's Complete Adjuvant (CFA) at the tail base. Starting at five days after disease induction, the animals were treated at three different oral doses of MIN-102, 17, 50, and 125 mg/Kg/day, using bid administration. From day five, the animals were weighed and scored for the appearance of disease symptoms. The levels of neutrophils were measured in mice from the naïve, vehicle, and the highest MIN-102 dose. Data were analyzed by one-way ANOVA followed by the Dunnett's post-hoc test versus the vehicle group (*, p <0.05). Results are presented as mean+standard error of the mean of n=10, except n=9 for the highest dose of MIN-102, and n=4 for the naïve group.

T7 sequence (P08684 whole entry): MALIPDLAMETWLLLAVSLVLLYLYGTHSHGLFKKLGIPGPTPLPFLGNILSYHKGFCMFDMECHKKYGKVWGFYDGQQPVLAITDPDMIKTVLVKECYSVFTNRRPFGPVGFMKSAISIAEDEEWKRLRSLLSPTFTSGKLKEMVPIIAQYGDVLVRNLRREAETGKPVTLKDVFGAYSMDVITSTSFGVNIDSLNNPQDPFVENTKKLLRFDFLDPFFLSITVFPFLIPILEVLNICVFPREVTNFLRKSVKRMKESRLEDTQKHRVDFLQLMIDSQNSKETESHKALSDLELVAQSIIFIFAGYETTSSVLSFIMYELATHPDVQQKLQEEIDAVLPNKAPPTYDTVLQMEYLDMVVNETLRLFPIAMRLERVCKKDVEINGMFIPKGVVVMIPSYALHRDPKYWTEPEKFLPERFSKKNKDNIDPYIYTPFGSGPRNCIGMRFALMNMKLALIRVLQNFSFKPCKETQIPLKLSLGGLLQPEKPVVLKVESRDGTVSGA
T2 sequence (P33261 whole entry): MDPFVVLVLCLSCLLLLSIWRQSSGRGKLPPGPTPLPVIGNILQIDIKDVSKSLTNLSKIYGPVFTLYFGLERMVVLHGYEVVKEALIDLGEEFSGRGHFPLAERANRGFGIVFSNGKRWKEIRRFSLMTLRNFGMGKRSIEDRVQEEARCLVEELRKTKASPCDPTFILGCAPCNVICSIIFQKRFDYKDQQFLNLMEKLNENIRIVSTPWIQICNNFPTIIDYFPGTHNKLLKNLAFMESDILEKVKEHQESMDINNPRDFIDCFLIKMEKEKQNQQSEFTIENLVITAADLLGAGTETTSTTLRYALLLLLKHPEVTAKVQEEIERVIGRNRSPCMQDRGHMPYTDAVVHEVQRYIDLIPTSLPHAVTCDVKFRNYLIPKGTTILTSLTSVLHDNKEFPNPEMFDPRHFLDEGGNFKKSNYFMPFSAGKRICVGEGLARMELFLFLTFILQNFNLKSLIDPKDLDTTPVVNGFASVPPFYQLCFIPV
T4 sequence (P11712 whole entry): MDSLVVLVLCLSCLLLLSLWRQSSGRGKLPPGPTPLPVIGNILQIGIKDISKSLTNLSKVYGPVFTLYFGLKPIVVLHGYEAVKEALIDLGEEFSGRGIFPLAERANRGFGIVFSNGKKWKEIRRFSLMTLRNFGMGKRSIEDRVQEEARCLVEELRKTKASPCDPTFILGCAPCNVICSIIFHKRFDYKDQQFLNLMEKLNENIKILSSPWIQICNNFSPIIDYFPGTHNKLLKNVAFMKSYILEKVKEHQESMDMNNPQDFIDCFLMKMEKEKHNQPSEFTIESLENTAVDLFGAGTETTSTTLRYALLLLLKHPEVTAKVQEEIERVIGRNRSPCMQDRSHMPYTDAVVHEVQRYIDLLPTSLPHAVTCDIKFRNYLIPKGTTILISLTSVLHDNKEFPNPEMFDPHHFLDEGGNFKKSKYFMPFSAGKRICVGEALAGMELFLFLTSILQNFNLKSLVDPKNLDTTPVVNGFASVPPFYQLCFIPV
T3 sequence (P10635 whole entry): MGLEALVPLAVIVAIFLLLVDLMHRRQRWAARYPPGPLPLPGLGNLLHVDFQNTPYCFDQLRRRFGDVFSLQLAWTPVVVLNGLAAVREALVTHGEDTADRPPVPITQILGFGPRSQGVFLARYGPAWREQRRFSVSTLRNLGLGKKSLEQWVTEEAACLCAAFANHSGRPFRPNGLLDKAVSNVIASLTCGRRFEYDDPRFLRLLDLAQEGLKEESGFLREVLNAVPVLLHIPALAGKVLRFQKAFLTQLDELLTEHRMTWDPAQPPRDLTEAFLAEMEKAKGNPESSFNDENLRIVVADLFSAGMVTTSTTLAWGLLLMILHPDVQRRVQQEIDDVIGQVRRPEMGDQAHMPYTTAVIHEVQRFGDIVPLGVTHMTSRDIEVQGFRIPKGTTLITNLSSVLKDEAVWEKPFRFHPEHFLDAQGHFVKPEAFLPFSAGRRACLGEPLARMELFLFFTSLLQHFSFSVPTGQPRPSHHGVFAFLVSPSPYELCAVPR

Broadly, the IC50 is the concentration needed to halve the response being measured. The Ki is a measure of affinity in units of concentration, obtained from inhibition or displacement. Turning to `CC(O)c1ccc(CCOc2ccc(CC3SC(=O)NC3=O)cc2)nc1` (racemic) [MIN-102, 5-[[4-[2-[5-(1-hydroxyethyl)pyridin-2-yl]ethoxy]phenyl]methyl]-1,3-thiazolidine-2,4-dione], the IC50 on CYP2B6 was greater than 100 µM; against CYP2C19 (reaction 5-OH-OME) it was greater than 100 µM; at CYP2C19 (reaction dem-OME), greater than 100 µM; against CYP2D6, greater than 100 µM; on CYP2C9, 103 µM; against CYP2A6, greater than 100 µM. Besides, the IC50 on CYP2C8 is 102 µM; at CYP3A4 (reaction 1-OH-MDZ) it was greater than 100 µM; against CYP3A4 (reaction 3-OH-OME), greater than 100 µM; against CYP3A4 (reaction 6β-OH-TES), greater than 100 µM; on CYP3A4 (reaction SO-OME), greater than 100 µM. For the same compound, the results for the Ki on CYP2C9 (read-out: Tentative Ki) and on CYP2C8 (read-out: Tentative Ki) were 52 µM and 84 µM, respectively. Moreover, the Lymphocyte number in the experiment on EAE mouse model was 3.6 ± 2.3 ×10^3 cells/μl. Also, the N/L ratio in the experiment on EAE mouse model is reported as 0.52. In addition, the Neutrophil number in the experiment with EAE mouse model is listed as 1.9 ± 0.6 ×10^3 cells/μl.
